The text below walks through data of article PMC8477192, “An ionic lock and a hydrophobic zipper mediate the coupling between an insect pheromone receptor BmOR3 and downstream effectors” (The Journal of Biological Chemistry, 2021).

Structures are written as SMILES.

The target of test [1] is T1, BmOR3 (Bombyx mori, UniProt Q5FBE0). Description: Arrestin recruitment BRET assay. The test is classed as cell-based. The settings on record: HEK293 cells, 10 min stimulation. Here is the method: HEK293 cells were transiently cotransfected with the N-terminal YFP-tagged BmOR3 together with N-terminal Rluc-fused β-arrestin-1, β-arrestin-2, or BmArr plasmids. Twenty-four hours after transfection, cells were distributed into a 96-well microplate and incubated for additional 24 h. The cells were stimulated with varying concentrations of bombykal for 10 min, and the BRET signal between YFP (530 nm) and Rluc (485 nm) was measured after the addition of the Rluc substrate coelenterazine h (5 μM) using a Mithras LB 940 multimode reader (Berthold Technologies). The BRET signal was calculated as the ratio of emission of YFP to Rluc.
T1 sequence (Q5FBE0 entry or part of it): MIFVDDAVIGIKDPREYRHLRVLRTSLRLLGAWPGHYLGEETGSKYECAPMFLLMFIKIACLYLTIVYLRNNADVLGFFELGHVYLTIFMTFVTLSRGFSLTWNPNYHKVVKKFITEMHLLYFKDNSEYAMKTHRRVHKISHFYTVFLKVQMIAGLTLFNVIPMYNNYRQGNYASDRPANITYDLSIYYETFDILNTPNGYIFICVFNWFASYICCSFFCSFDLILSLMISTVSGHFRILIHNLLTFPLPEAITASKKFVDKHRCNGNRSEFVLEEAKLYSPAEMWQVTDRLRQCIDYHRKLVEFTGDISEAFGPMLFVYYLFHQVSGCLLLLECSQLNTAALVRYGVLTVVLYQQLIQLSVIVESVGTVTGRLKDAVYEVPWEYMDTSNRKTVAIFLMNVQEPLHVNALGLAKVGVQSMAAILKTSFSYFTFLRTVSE
In general terms: Activated receptors often draw arrestin, which recruitment assays turn into a signal.

Test [2] has as its target T1, BmOR3. Description: BRET-based internalization assay (Rluc-BmOR3 / Lyn-YFP). The settings on record: HEK293 cells; 1 μM, 20 min. The test is classed as cell-based. On the procedure:
BRET-based internalization assay was performed as previously described ([57]). Briefly, HEK293 cells treated with Ctrl or β-arrestin-1/2 siRNA, or pretransfected with BmArr, were transiently transfected with N-terminal Rluc-fused BmOR3 and plasma membrane marker Lyn-YFP. Twenty-four hours after transfection, the cells were detached and distributed into a 96-well microplate. After another 24-h incubation at 37 °C, the cells were stimulated with vehicle or 1 μM bombykal at 37 °C for 20 min. Rluc substrate coelenterazine h was added at a final concentration of 5 μM before light emissions of YFP and Rluc were recorded using a Mithras LB 940 microplate reader (Berthold Technologies). The BRET signal was calculated as the ratio of emission of YFP to Rluc.
(In general: BRET reads energy transfer from a luciferase to a nearby fluorophore.)

In test [3] the target is T1, BmOR3. Description: GloSensor cAMP assay. The test is classed as cell-based. The note with it: BmOR3-transfected HEK293 cells, not in mock cells; 1 μM forskolin. On the procedure:
The GloSensor cAMP assay was performed as previously described ([40], [55], [56]). Briefly, HEK293 cells were transfected with the BmOR3 plasmid or empty vector pcDNA3.1 together with the GloSensor plasmid. 24 h after transfection, cells were distributed into 96-well microplates at a density of 50,000 cells/well. After another 24 h, the cells were incubated with DMEM containing 2% (v/v) GloSensor cAMP reagent for 2 h at 37 °C. Cells were then treated with varying concentrations of bombykal followed by the stimulation of 1 μM forskolin. The luminescence intensity was measured using an EnVision multi-label microplate detector (PerkinElmer).
In general terms: Cyclic AMP is a second messenger, typically raised through Gs and lowered through Gi signalling.

Test [4] addresses T1, BmOR3. Nature of the test: G protein recruitment BRET assay (Gi-Rluc to YFP-BmOR3). The test is classed as cell-based. The note with it: HEK293 cells, 2 min stimulation. On the procedure:
Gi1-Rluc, Gi2-Rluc, and Gi3-Rluc plasmids were constructed according to previous report ([30]). HEK293 cells were transiently cotransfected with N-terminal YFP-tagged BmOR3 together with Gi-Rluc plasmids. Twenty-four hours after transfection, cells were distributed into a 96-well microplate. After another 24 h, the cells were stimulated with an increasing amount of bombykal for 2 min. The light emission of Rluc (485 nm) and YFP (530 nm) was measured after the addition of the Rluc substrate coelenterazine h (5 μM) using a Mithras LB 940 multimode reader (Berthold Technologies). The BRET signal was calculated as the ratio of emission of YFP to Rluc. The net BERT value was calculated by subtracting the BRET signal obtained in the cells transfected with Rluc-Gi plasmids only.

Test [5] deals with T1, BmOR3. Description: G protein dissociation BRET assay (TRUPATH probes). The test is classed as cell-based. Here is the method:
The Gi, Gq, Go, Gs, and Gz dissociation BRET probes were from the TRUPATH kit, which was a gift from Bryan Roth (Addgene kit #1000000163 ([31])). HEK293 cells were cotransfected with BmOR3 along with specific G protein BRET probes. After 24 h, the cells were reseeded in 96-well microplates and incubated for another 24 h. The cells were washed twice with Hank's balanced salt solution and stimulated with bombykal at different concentrations for 2 min. The light emission of Rluc8 (400 nm) and GFP10 (510 nm) was measured after the addition of the substrate coelenterazine 400a (5 μM) using a Mithras LB 940 multimode reader (Berthold Technologies). The BRET signal was calculated as the ratio of light emission at 510/400 nm.

In a further test the test system is BmOR3 and BmOrco. Nature of the test: CalfluxVTN Ca2+ assay (BRET-based calcium sensor). The test is classed as cell-based, Bombyx mori. Here is the method:
HEK293 cells were cotransfected with plasmids encoding WT BmOR3 and BmOrco or their mutants, or AT1R together with CalfluxVTN probe. 24 h after transfection, cells were redistributed into 96-well flat-bottomed microplates. After another 24 h, cells were incubated with conventional buffer with Ca^2+ (135 mM NaCl, 5 mM KCl, 1 mM CaCl2, 5 mM D-glucose, 10 mM Hepes; pH = 7.4) or with Ca^2+-free buffer (135 mM NaCl, 5 mM KCl, 1 mM EGTA, 5 mM D-glucose, 10 mM Hepes; pH = 7.4), and stimulated with different concentrations of Bombykal (or AngII). The BRET ratio between Venus and Nluc was measured before (baseline) and after the addition of the Nluc substrate furimazine (5 μM) using a Mithras LB 940 multimode reader (Berthold Technologies). The BRET signal was calculated as ratio of emission of Venus (530 nm) to Nluc (460 nm). The baseline value was subtracted from the bombykal-stimulated BRET signal to obtain the ΔBRET value.

On to `CCC/C=C\C=C\CCCCCCCCC=O` [bombykal], for which the EC50 at BmOR3 [1] (BmArr1, read-out: potency of recruitment of BmArr1 to BmOR3 (concentration-dependent)) was 90 ± 11.1 nM; at BmOR3 [1] (β-arrestin-2, read-out: potency of recruitment of β-arrestin-2 to BmOR3 (concentration-dependent)), 151 ± 21.3 nM; on BmOR3 [4] (Gi1, read-out: EC50 of coupling of Rluc-tagged Gi1 to YFP-fused BmOR3) it was 11.7 ± 1.19 nM; on BmOR3 [4] (Gi2, read-out: EC50 of coupling of Rluc-tagged Gi2 to YFP-fused BmOR3), 22 ± 3.22 nM; at BmOR3 [4] (Gi3, read-out: EC50 of coupling of Rluc-tagged Gi3 to YFP-fused BmOR3), 10.6 ± 2.06 nM; at BmOR3 [5] (HEK293 cells, Gi BRET probes, 2 min stimulation, read-out: EC50 of Gi activation through BmOR3 (decrease of the BRET signal)), 16.4 ± 5.04 nM. In addition, the “BmOR3 internalization (BRET signal between Rluc-BmOR3 and Lyn-YFP)” value at BmOR3 [2] is given as “significant decrease in the BRET signal”. Moreover, the “forskolin-induced cAMP” value at BmOR3 [3] was “concentration-dependent decrease”. In addition, at BmOR3 [5] (HEK293 cells transfected with BmOR3, Go probes), the Go activation entry was “did not induce”. On BmOR3 [5] (HEK293 cells transfected with BmOR3, Gq probes), the Gq activation result is given as “did not induce”. The Gs activation result on BmOR3 [5] (HEK293 cells transfected with BmOR3, Gs probes) is reported as “did not induce”. Further, the Gz activation result on BmOR3 [5] (HEK293 cells transfected with BmOR3, Gz probes) was “did not induce”. Further, in the test with BmOR3 and BmOrco (1 μM, Ca2+-free buffer versus Ca-containing buffer), the “Ca2+ signal through BmOR3–BmOrco in the Ca2+-free incubating buffer” value is reported as “completely abolished”. Besides, the “Ca2+ response through BmOR3/BmOrco relative to that induced by angiotensin II through activating AT1R” value in the test on BmOR3 and BmOrco (1 μM, CalfluxVTN-expressing HEK293 cells, receptors expressed at similar levels) is reported as “approximately 70%”. For the same compound, the “calcium influx in response to stimulation” value in the test with BmOR3 and BmOrco (HEK293 cells coexpressing BmOR3 and BmOrco, not with BmOR3 or BmOrco alone) was “elicited robust calcium influx”.
